The values below come from article PMC5387711 (Cell Discovery, 2017).

Each structure is given as a SMILES string.

This experiment deals with T1, CARF (hCARF; collaborator of ARF) (Homo sapiens, UniProt Q9NXV6).
T1 construct: gene CDKN2AIP; full length; site Cys-516 in C-terminal fragment C1
T1 sequence (Q9NXV6 2-580): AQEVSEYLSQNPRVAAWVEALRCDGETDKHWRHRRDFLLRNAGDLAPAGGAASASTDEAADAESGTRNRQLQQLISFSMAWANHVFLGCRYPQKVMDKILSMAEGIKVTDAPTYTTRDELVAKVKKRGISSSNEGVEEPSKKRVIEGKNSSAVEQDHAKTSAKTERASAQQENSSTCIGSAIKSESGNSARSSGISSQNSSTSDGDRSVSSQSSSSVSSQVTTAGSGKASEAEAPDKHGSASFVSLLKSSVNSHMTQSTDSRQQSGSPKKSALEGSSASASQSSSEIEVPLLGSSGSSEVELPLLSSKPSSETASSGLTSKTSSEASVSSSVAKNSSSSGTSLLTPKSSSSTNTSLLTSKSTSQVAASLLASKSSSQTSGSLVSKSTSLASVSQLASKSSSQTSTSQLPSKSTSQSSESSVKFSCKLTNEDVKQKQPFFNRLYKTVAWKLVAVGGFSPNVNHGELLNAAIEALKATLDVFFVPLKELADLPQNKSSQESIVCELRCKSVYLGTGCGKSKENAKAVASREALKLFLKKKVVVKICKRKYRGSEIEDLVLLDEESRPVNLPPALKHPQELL
Description: competition with S-614 for bead-bound His6-hCARF. In kind it is binding. The settings on record: 15 uM NC043 against 7.5 uM S-614, 1 h, 4 C; covalent (Cys-516).

With `C=C1C(=O)[C@]23CC[C@H]1C[C@H]2[C@@]12CCC[C@@](C)(COC1=O)[C@H]2C[C@H]3O` [NC043], the “competition with S-614 for bead-bound His6-hCARF” value is recorded as “S-614 directly binds to CARF, which could be competed off by NC043”.
